Assay results published in patent US10202652B2, “Methods and compositions of predicting activity of retinoid X receptor modulator” (Denovo Biopharma (Hangzhou) Ltd. Co., priority 2011, dated 2019).

Legend:
[1] = system: non small cell lung cancer; test: Kaplan-Meier survival analysis of bexarotene-treated patients in the SPIRIT I and II phase III trials; type: in vivo, human (patients); conditions: bexarotene plus chemotherapy, control arm 284 days
Description: Bexarotene (also called Targretin, LGD1069) is a selective modulator of retinoid X receptors (RXRs) approved for treating refractory advanced-stage cutaneous T-cell lymphoma (1, 2). […] Consequently, two large phase III trials (SPIRIT I and SPIRIT II) were conducted to evaluate the efficacy and safety of standard chemotherapy agents with or without bexarotene as a first-line therapy in treating advanced non small cell lung cancer. […] A known side-effect of retinoid therapy is the elevation of serum lipids, and the majority of the bexarotene treated patients in the two SPIRIT trials developed hypertriglyceridemia, as expected. […] This intriguing correlation between survival and triglyceride level induced by bexarotene observed in both SPIRIT trials is illustrated in FIG. 1A. […] These findings prompted the search for biomarkers which can predict bexarotene sensitivity and identify a subgroup of non small cell lung cancer patients whose survival could be prolonged by bexarotene treatment.
FIG. 1. Sub-population analysis and study design. […] Kaplan-Meier survival estimates in patients gave median survivals of 170 days, 263 days, and 371 days for these three groups, respectively. […] B. Overview of genome-wide association study design. In Stage I discovery phase, 150 samples (74 cases and 76 controls) were genotyped using the Affymetrix GeneChip 500K Mapping Array Set (Nsp array+Sty array) containing 500,000 SNPs following the Affymetrix standard protocol. 255 SNPs were then selected for stage II study. In Stage II, 400 samples were individually genotyped using the 255 Sequenom iPLEX SNP assays, including 147 samples (minus one case and two controls) used in the Stage I for the Verification group and 253 new samples for the Replication group. In the Replication group, 129 samples were included from the patients with middle level of triglyceride percentile (HTG Mid).

LCP1 = test: RNA microarray of LCP1 expression in paclitaxel-resistant MDA-MB-231 (MDA-PR) cells; type: cell-based, human; conditions: for effect on LCP1 expression (in words): paclitaxel alone, or bexarotene together with paclitaxel
Description: (§1) The human breast cancer cell line MDA-MB-231 was obtained from the American Type Culture Collection (Manassas, Va., USA), and MDA-MB-231 cells were routinely cultured in RPMI-1640 supplemented with 10% fetal bovine serum and 2 mM glutamine in 5% CO2. Bexarotene was synthesized at Ligand Pharmaceuticals Inc. (San Diego, Calif., USA), and paclitaxel was purchased from Sigma Chemicals (St. Louis, Mo., USA). The protocol for establishment of paclitaxel-resistant MDA-MB-231 cells and resensitization to paclitaxel by bexarotene treatment was described previously (5). Briefly, MDA-MB-231 cells were exposed to regimens on a 10-day cycle: a 3-day treatment with 30 nM paclitaxel followed by a 7-day exposure to control medium. […] These MDA-PR cells were then treated with the combination of 30 nM paclitaxel (3 days on and 7 days off) in the absence or presence of 1 μM Targretin (10 days on) in a new 10-day cycle for 3 months.

MDA-PR cells = test: Growth and resensitization of paclitaxel-resistant MDA-MB-231 cells; type: cell-based, human; conditions: 30 nM paclitaxel (3 days on, 7 days off) in absence or presence of 1 μM Targretin (10 days on), 3 months
Description: as §1

[2] = system: non small cell lung cancer; conditions: addition of bexarotene to chemotherapy, first-line, advanced non small cell lung cancer, both phase III trials; cited from earlier work
[3] = bexarotene-treated patients, two SPIRIT trials; cited from earlier work

Row | Compound | median survival (Kaplan-Meier estimate) ([1]; 'HTG Hi' group: 67% to maximum triglyceride) [days] | median survival (Kaplan-Meier estimate) ([1]; 'HTG Lo' group: triglyceride up to 33% of maximum level) [days] | median survival (Kaplan-Meier estimate) ([1]; 'HTG Mid' group: middle third (33% to 67%)) [days] | LCP1 expression up-regulation compared to MDA-PR cells (LCP1; 30 nM paclitaxel/1 μM bexarotene for 3 months, p-value=6.86×10^−6) [fold] | effect on LCP1 expression (in words) (LCP1) | effect on growth / paclitaxel sensitivity of MDA-PR cells (MDA-PR cells) | overall survival in the intent-to-treat population [2] | patients who developed NCI grade 3 or higher hypertriglyceridemia [3]
1 | C=C(c1ccc(C(=O)O)cc1)c1cc2c(cc1C)C(C)(C)CCC2(C)C [bexarotene] | 371 | 170 | 263 | 3.8 | significantly up-regulated | re-sensitized to paclitaxel | did not improve overall survival | 30-40%
2 | CC(=O)O[C@H]1C(=O)[C@@]2(C)[C@H]([C@H](OC(=O)c3ccccc3)[C@]3(O)C[C@H](OC(=O)[C@H](O)[C@@H](NC(=O)c4ccccc4)c4ccccc4)C(C)=C1C3(C)C)[C@]1(OC(C)=O)CO[C@@H]1C[C@@H]2O [paclitaxel] |  |  |  |  | no effect | no effect |  | 
